Results from patent US20240122179A1, “AUXINIC HERBICIDES AND METHODS OF USE THEREOF” (CORTEVA AGRISCIENCE LLC, priority 2021, published 2024).
Where two headings read alike, the source gives them in different places.

Tests used:
Test in all cases: Postemergence herbicide evaluation, percent reduction in plant size vs untreated control, 21 days after treatment
[1] = system: Conyza canadensis (L.) (ERICA); assay type: in vivo, Conyza canadensis (L.) (Horseweed); conditions: Erigeron canadensis, post-emergence, 504 h, ERICA, postemergence, read-out: Control/Injury; for pest or weed control at 140 g/ha: rate 140 g ae/ha; for pest or weed control at 280 g/ha: rate 280 g ae/ha
Description: (§1) Plants were grown in a soil media composed of 90% by volume Promix BX (Premier Tech Horticulture, Quakertown, PA) and 10% Profile Greens Grade (Profile Products LLC, Buffalo Grove, IL). Promix BX contains approximately 83% Sphagnum Peat Moss, 13% Perlite, 5% vermiculite, and proprietary amounts of limestone, starter fertilizer, and wetting agent. Profile Greens Grade is a sand-sized granule formed from calcining illite and montmorillonite clay. Several seeds of each species were planted in 10 cm square pots and top watered twice daily. Plant material was propagated in a warm greenhouse with temperature ranging from 25 to 28° C. and 50 to 60% relative humidity at the Corteva Global Headquarters (Indianapolis, Indiana, USA). Natural light was supplemented with 1000-watt metal halide overhead lamps with an average illumination of 500 μE m^−2 s^−1 photosynthetic active radiation for 16 consecutive hours each day. Plants were top-watered prior to herbicide application and sub-watered after herbicide application.
(§2) Appropriate amounts of test materials were weighed out into glass vials in their technical form to deliver either 140 or 280 g acid equivalent (ae)/ha. The samples were dissolved in 3 ml of Solvent 1. Solvent 1 is 97% acetone and 3% dimethyl sulfoxide and serves as a general-purpose solvent (GPS) for dissolving technical materials. […] The samples were then diluted to their final concentration using 17 ml of solvent 2 for a total of 20 ml of spray solution. Solvent 2 contains 41.58% GPS, 45.53% water, 11.88% isopropyl alcohol, 0.99% crop oil concentrate and 0.02% Trition X-155 surfactant. All percentages are listed on a volume basis. Dicamba diglycolamine was applied as a formulated herbicide, Clarity™ and diluted with solvent 2 to compare all materials in the same spray solution.
(§3) Herbicide applications were made to 3 to 4 replicates of each plant species at the 2 to 8 leaf stage, depending on the species. Treatments were applied with a research track-sprayer (Generation III Research Sprayer manufactured by DeVries Manufacturing in Hollandale, MN, USA) calibrated to deliver a spray volume of 187 L/ha. The track-sprayer was fitted with an 8003E nozzle from Spray Systems Company (North Avenue and Schmale Road, P.O. Box 7900, Wheaton, IL 60187), and used a spray pressure of 276 kPa pressure and a speed of 3.1 km/h. The nozzle height was 46 cm above the plant canopy. The experimental design used for the trials was a randomized complete block with 3 or 4 replications per treatment. After application, plants were placed on carts according to the randomization and returned to the greenhouse. Plants were sub-watered after treatment with Indianapolis city water or fertilized three times a week with a commercial fertilizer solution (Jack's Professional 15-5-15 4 Ca 2 Mg fertilizer (manufactured by JR PETERS INC., 6656 Grant Way, Allentown, PA 18106; www.jrpeters.com). Percent visual control assessments were made on a scale of 0 to 100% (where 0 was no control and 100 was complete plant death) at 7, 14, and 21 days after treatment.
(§4) In conformity with the methods outlined in Example 49, the effect of representative experimental compounds on the growth of Conyza canadensis (L.), (ERICA), common name, Horseweed, was determined at 2 different levels (respectively, 140 and 280 g acid equivalent (ae)/ha) of the experimental actives tested. Plants were treated with one of the compounds, a control plant was not treated. Twenty-one days after treatment, the plants were measured. The data is present as a percent reduction in plant size relative to the untreated control.

Amaranthus rudis (AMATA) = assay type: in vivo, Amaranthus rudis (tall water hemp); conditions: Amaranthus tuberculatus, post-emergence, 504 h, AMATA, postemergence, read-out: Control/Injury; for pest or weed control at 140 g/ha: rate 140 g ae/ha; for pest or weed control at 280 g/ha: rate 280 g ae/ha
Description: as §1, §2, §3
as §4, with “Amaranthus rudis (AMATA),” for “Conyza canadensis (L.), (ERICA),”, “name tall water hemp,” for “name, Horseweed,”

[2] = system: Ambrosia artemisiifolia (AMBEL); assay type: in vivo, Ambrosia artemisiifolia (common ragweed); conditions: post-emergence, 504 h, AMBEL, postemergence, read-out: Control/Injury; for pest or weed control at 140 g/ha: rate 140 g ae/ha; for pest or weed control at 280 g/ha: rate 280 g ae/ha
Description: as §1, §2, §3
as §4, with “Ambrosia artemisiifolia (AMBEL), (common ragweed),” for “Conyza canadensis (L.), (ERICA), common name, Horseweed,”

Kochia scoparia (KCHSC) = assay type: in vivo; conditions: KCHSC, postemergence; for pest or weed control at 140 g/ha / pest or weed control at 280 g/ha: Bassia scoparia, post-emergence, 504 h, read-out: Control/Injury; for pest or weed control at 280 g/ha: rate 280 g ae/ha
Description: as §1, §2, §3
as §4, with “Kochia scoparia (KCHSC)” for “Conyza canadensis (L.), (ERICA), common name, Horseweed,”

[3] = system: Amaranthus palmeri (AMAPA); assay type: in vivo, Amaranthus palmeri (Palmer amaranth); conditions: post-emergence, 504 h, postemergence, read-out: Control/Injury; for pest or weed control at 140 g/ha: rate 140 g ae/ha; for pest or weed control at 280 g/ha: rate 280 g ae/ha
Description: as §1, §2, §3
as §4, with “Amaranthus palmeri (AMAPA),” for “Conyza canadensis (L.), (ERICA),”, “Palmer amaranth,” for “Horseweed,”

[4] = percent reduction vs untreated control, 21 days after treatment
[5] = rate 140 g ae/ha, percent reduction vs untreated, 21 days after treatment
[6] = percent reduction vs untreated, 21 days after treatment
[7] = R-AMAPA, percent reduction vs untreated control, 21 days after treatment

Row | SMILES | pest or weed control at 140 g/ha [1, 4] | pest or weed control at 280 g/ha [1, 4] | pest or weed control at 140 g/ha (Amaranthus rudis (AMATA)) | pest or weed control at 280 g/ha (Amaranthus rudis (AMATA)) | pest or weed control at 140 g/ha [1] | pest or weed control at 280 g/ha [1] | pest or weed control at 140 g/ha [2] | pest or weed control at 280 g/ha [2] | pest or weed control at 140 g/ha (Kochia scoparia (KCHSC); [5]) | pest or weed control at 280 g/ha (Kochia scoparia (KCHSC); [6]) | pest or weed control at 140 g/ha ([3]; AMAPA) | pest or weed control at 280 g/ha ([3]; AMAPA) | pest or weed control at 140 g/ha (Kochia scoparia (KCHSC); rate 140 g ae/ha) | pest or weed control at 280 g/ha (Kochia scoparia (KCHSC)) | pest or weed control at 140 g/ha [3, 7] | pest or weed control at 280 g/ha [3, 7] | Control/Injury (Kochia scoparia (KCHSC); rate 140 g ae/ha)
1 | COc1c(Cl)ccc(Cl)c1C(=O)O/N=C(\N)c1cccc2ccccc12 [Compound A-30] | 50% | 22% | – | – | – | – | – | – | – | – | – | – | – | – | – | – | –
2 | COc1c(Cl)ccc(Cl)c1C(=O)O [Dicamba, 3,6-dichloro-2-methoxybenzoic acid, reference compound] | – | – | 99% | 90% | 94% | 100% | 97% | 100% | 94% | 97% | 78% | 94% | – | – | – | – | –
3 | COc1c(Cl)ccc(Cl)c1C(=O)Nc1ccon1 [Compound A-106] | – | – | 25% | 28% | 5% | 10% | 25% | 28% | 3% | 3% | 25% | 20% | – | – | – | – | –
4 | COc1c(Cl)ccc(Cl)c1C(=O)n1ncc2ccccc21 [Compound A-113] | – | – | 50% | 63% | 50% | 99% | 70% | 90% | 85% | 93% | 40% | 70% | – | – | – | – | –
5 | COc1c(Cl)ccc(Cl)c1C(=O)ON(Cc1ccccc1)Cc1ccccc1 [Compound A-72] | 83% | 92% | 63% | 74% | – | – | 82% | 98% | – | – | – | – | 82% | 94% | 72% | 83% | –
6 | COc1c(Cl)ccc(Cl)c1C(=O)n1ccnc1 [Compound A-126] | – | – | 45% | 55% | 15% | 33% | 33% | 50% | 28% | 50% | 33% | 35% | – | – | – | – | –
7 | COc1c(Cl)ccc(Cl)c1C(=O)C(Cl)(Cl)Cl [Compound A-96] | 0% | 0% | – | – | – | – | – | – | – | – | – | – | – | – | – | – | –
8 | COc1c(Cl)ccc(Cl)c1C(=O)O/N=C/c1ccc(/C=N/OC(=O)c2c(Cl)ccc(Cl)c2OC)cc1 [Compound A-57] | – | – | 95% | – | – | – | 95% | 98% | – | – | – | – | 92% | 100% | – | 100% | –
9 | COc1c(Cl)ccc(Cl)c1C(=O)O/N=C(\N)c1ccc2[nH]cnc2c1 [Compound A-29] | 40% | 40% | – | – | – | – | – | – | – | – | – | – | – | – | – | – | –
10 | COc1c(Cl)ccc(Cl)c1C(=O)O/N=C(\N)c1ccc2[nH]ccc2c1 [Compound A-28] | 70% | 83% | – | – | – | – | – | – | – | – | – | – | – | – | – | – | –
11 | COc1c(Cl)ccc(Cl)c1C(=O)O/N=C(\N)c1cccc(Cl)c1 [Compound A-12] | 72% | 87% | – | – | – | – | – | – | – | – | – | – | – | – | – | – | –
12 | COc1c(Cl)ccc(Cl)c1C(=O)O/N=C(\N)c1cc(Cl)cc(Cl)c1 [Compound A-16] | 68% | 78% | – | – | – | – | – | – | – | – | – | – | – | – | – | – | –
13 | COc1c(Cl)ccc(Cl)c1C(=O)OCc1ccccc1 [Compound A-44] | – | – | – | 60% | – | – | – | 80% | – | – | – | – | 60% | 90% | 80% | 85% | 60
14 | COc1c(Cl)ccc(Cl)c1C(=O)O/N=C(\C)c1cccnc1 [Compound A-47] | – | – | – | 75% | – | – | 85% | 100% | – | – | – | – | 98% | 100% | 90% | 95% | –
15 | COc1c(Cl)ccc(Cl)c1C(=O)Nc1ccncc1 [Compound A-61] | – | – | 85% | 90% | – | – | 99% | 98% | – | – | – | – | 98% | 99% | 85% | 100% | –
